We go through seven compounds from patent US4411890A, “Synthetic peptides having pituitary growth hormone releasing activity” (Beckman Instruments, Inc., priority 1981, dated 1983).

The experiment concerns pituitaries. The experiment is described as follows: In vitro growth hormone release study (incubated rat pituitaries, GH by RIA). The class given is cell-based. The note with it: GH released at I3, I4 (I5) minus P2, mean ± SEM. The method, then:
Female rats of the CD-1 strain were housed in a constant temperature room at 24° C. with 14 hours light and 10 hours darkness. The rats were fed Purina brand rat chow ab libitum. All studies were started between 0800 and 1000 hours.
Pituitaries were removed from 20 day old female rats. In each polytetrafluoroethylene beaker (10 ml) was incubated two pituitaries at 36° C. in 1 ml of lactated Ringer's solution in a Dubnoff Shaker (90 cycles/min.). All medium in each beaker was removed each hour (e.g., P1, P2, I3, I4, I5) and then fresh medium was added back to each beaker. Each medium removed was assayed for GH, in duplicate, by a standard radioimmunoassay (RIA).
The growth hormone agonist of Example 1 was not added to the incubation mediums employed during the first hour of the incubation period (P1) or to the incubation mediums employed during the second hour of the incubation period (P2). The growth hormone agonist of Example 1 was dissolved in dimethylsulfoxide (DMSO; 10:1, agonist:DMSO), added to each incubation medium employed during the third hour of the incubation period (I3), to each medium employed during the fourth hour of the incubation period (I4), and, when performed, to each medium employed during the fifth hour of the incubation period (I5). The release of growth hormone was recorded as ΔGH and calculated by subtracting the amount of GH released at P2 from that released at I3, I4, and, when performed, I5. The agonist activity was determined from the release at I3, I4, and, when performed, I5. The mean of the ΔGH values obtained from the three beakers per dosage level measured at I3, I4, and, when performed, I5 are set forth in Table VI.

[1] abbreviates: dosage 10 ng/ml incubation medium.
Where [2] appears, read: dosage 30 ng/ml incubation medium.
Setting [3] is: dosage 100 ng/ml incubation medium.
Where [4] appears, read: dosage 1,000 ng/ml incubation medium.
Setting [5] is: dosage 10,000 ng/ml incubation medium.

Where a SMILES comes first, the peptide text is derived from it.

For the compound `C[C@H](NC(=O)[C@@H](Cc1c[nH]c2ccccc12)NC(=O)[C@@H](N)Cc1c[nH]cn1)C(=O)N[C@@H](Cc1c[nH]c2ccccc12)C(=O)N[C@H](Cc1ccccc1)C(=O)N[C@@H](CCCN)C(N)=O` [H2 -His-D-Trp-Ala-Trp-D-Phe-Orn-NH2] (HELM PEPTIDE1{H.[dW].A.W.[dF].[Orn].[am]}$$$$V2.0), the ΔGH by setting is: (dosage 1 ng/ml incubation medium) -295 ± 93 ng/ml incubation medium; under setting [1], 356 ± 92 ng/ml incubation medium.

Regarding `NCCCC[C@H](NC(=O)[C@@H](Cc1ccccc1)NC(=O)[C@H](Cc1c[nH]c2ccccc12)NC(=O)[C@H](CO)NC(=O)[C@@H](Cc1c[nH]c2ccccc12)NC(=O)[C@@H](N)Cc1c[nH]cn1)C(N)=O` [H2 -His-D-Trp-Ser-Trp-D-Phe-Lys-NH2] (HELM PEPTIDE1{H.[dW].S.W.[dF].K.[am]}$$$$V2.0), the ΔGH reads like this: under setting [1], 161 ± 157 ng/ml incubation medium; under setting [2], 705 ± 149 ng/ml incubation medium.

On to `CC(C)[C@H](NC(=O)[C@@H](Cc1c[nH]c2ccccc12)NC(=O)[C@@H](N)Cc1c[nH]cn1)C(=O)N[C@@H](Cc1c[nH]c2ccccc12)C(=O)N[C@H](Cc1ccccc1)C(=O)N[C@@H](CCCCN)C(N)=O` [H2 -His-D-Trp-Val-Trp-D-Phe-Lys-NH2] (HELM PEPTIDE1{H.[dW].V.W.[dF].K.[am]}$$$$V2.0), for which, under setting [2], the ΔGH was -118 ± 65 ng/ml incubation medium.

Take `C[C@H](NC(=O)[C@@H](Cc1c[nH]c2ccccc12)NC(=O)[C@@H](N)Cc1ccc(O)cc1)C(=O)N[C@@H](Cc1c[nH]c2ccccc12)C(=O)N[C@H](Cc1ccccc1)C(=O)N[C@@H](CC(N)=O)C(N)=O` [H2 -Tyr-D-Trp-Ala-Trp-D-Phe-Asn-NH2] (HELM PEPTIDE1{Y.[dW].A.W.[dF].N.[am]}$$$$V2.0): the ΔGH reads like this: under setting [2], 244 ng/ml incubation medium; under setting [3], 528 ± 184 ng/ml incubation medium; under setting [4], 1,670 ± 126 ng/ml incubation medium.

Regarding `C[C@H](NC(=O)[C@@H](Cc1c[nH]c2ccccc12)NC(=O)[C@@H](N)Cc1ccc(O)cc1)C(=O)N[C@@H](Cc1c[nH]c2ccccc12)C(=O)N[C@H](Cc1ccccc1)C(=O)N[C@@H](CCC(N)=O)C(N)=O` [H2 -Tyr-D-Trp-Ala-Trp-D-Phe-Gln-NH2] (HELM PEPTIDE1{Y.[dW].A.W.[dF].Q.[am]}$$$$V2.0), the ΔGH reads like this: under setting [1], 240 ng/ml incubation medium; under setting [3], 2,000 ± 523 ng/ml incubation medium; under setting [4], 4,235 ± 785 ng/ml incubation medium; under setting [5], 4,141 ± 576 ng/ml incubation medium.

Take `C[C@H](NC(=O)[C@@H](Cc1c[nH]c2ccccc12)NC(=O)[C@@H](N)Cc1ccc(O)cc1)C(=O)N[C@@H](Cc1c[nH]c2ccccc12)C(=O)N[C@H](Cc1ccccc1)C(=O)N[C@@H](CCC(N)=O)C(=O)O` [H2 -Tyr-D-Trp-Ala-Trp-D-Phe-Gln-OH] (HELM PEPTIDE1{Y.[dW].A.W.[dF].Q}$$$$V2.0): the ΔGH runs as follows: under setting [3], 753 ± 559 ng/ml incubation medium; under setting [4], 2,759 ± 515 ng/ml incubation medium; under setting [5], 3,994 ± 1,214 ng/ml incubation medium.

As for `C[C@H](NC(=O)[C@@H](Cc1c[nH]c2ccccc12)NC(=O)[C@@H](N)Cc1ccc(O)cc1)C(=O)N[C@@H](Cc1c[nH]c2ccccc12)C(=O)N[C@H](Cc1ccccc1)C(=O)N[C@@H](CCC(=O)O)C(N)=O` [H2 -Tyr-D-Trp-Ala-Trp-D-Phe-Glu-NH2] (HELM PEPTIDE1{Y.[dW].A.W.[dF].E.[am]}$$$$V2.0), the ΔGH runs as follows: under setting [2], 224 ng/ml incubation medium; (dosage 300 ng/ml incubation medium) 472 ± 104 ng/ml incubation medium; (dosage 3,000 ng/ml incubation medium) 1,404 ± 179 ng/ml incubation medium; (dosage 30,000 ng/ml incubation medium) 1,909 ± 270 ng/ml incubation medium.
